# From patent publication US20100003217A1, “Compounds and Pharmaceutical Compositions for the Treatment of Viral Infections” (priority 2008, published 2010)
# Values joined by “and” are separate entries in the source; they are usually repeats but may differ in a detail not shown here. Identical values can stand only once.
# Tested on: Huh-7 cells
# Assay: Metabolic disposition of [^14C]-Compound 1 and [^14C]-2′-C-methyl guanosine in Huh-7 cells (incubation medium, cellular extracts, nucleotide levels)
# Format: in vitro ADME, human
# Conditions: for Major metabolites observed in cellular extracts (% of total radioactivity) / 2′-C-methyl guanosine nucleotide levels in cellular extracts: Huh7; for % Residual [^14C]-Compound 1 in incubation medium / metabolites observed in medium (% of total radioactivity): Huh7 cells (n=2); for % Residual [^14C]-Compound 1 in incubation medium: 10 μM
# Procedure: Huh-7 cells: Confluent monolayers of Huh-7 cells were dispersed using trypsin-EDTA, rinsed and pelleted by centrifugation at 1,000 rpm (Beckman, Model Allegra 6R). Cells were resuspended at 0.2, 0.3 and 0.4×10^6 cells/mL of medium (DMEM supplemented with 1% pyruvate, 10% FBS, 0.5% penicillin-streptomycin, 1% L-glutamine, 1% non-essential amino acids and 22 mM HEPES). Multi-well collagen I-coated plates (rat tail collagen type I; 6-well) were then seeded by addition of 2.0 mL of cell suspension to achieve final cell density of 0.4, 0.6 and 0.8×10^6 cells/well and placed in an incubator at 37° C. overnight to allow cells to attach and acclimatize to culture and the medium. Duplicate plates were prepared with the same cell density for cell number determination at each time point.
# Huh-7 incubations were conducted in a final volume of 2.0 mL Huh7 culture medium/well ([…]). Culture medium from overnight incubation of cells was removed and replaced with fresh culture medium, pre-warmed to 37° C. containing [^14C]-Compound 1 or [^14C]-2′-C-methyl guanosine as described above for primary hepatocytes. After 24, 48 and 72 hours, 0.5-1.0 mL of incubation medium was removed and stored at −20° C. until analysis (described below). The remaining medium was discarded and cell monolayers processed and extracted as described above.
# Preliminary identification of putative metabolites was conducted by comparing the retention time of observed metabolites in incubation medium and cellular extracts with retention times obtained with chemically synthesized standards using the chromatography conditions described below. Further identification of 2′-C-methyl guanosine nucleotides (mono-, di- and triphosphate) was carried out by incubating cellular extract samples with alkaline phosphatase (10 units for 60 min at 37° C.) and comparing the HPLC retention times of the resulting nucleosides with that of authentic 2′-C-methyl guanosine.
# Cellular extracts were prepared by centrifugation at 16,000 RCF using an Eppendorf microcentrifuge (Eppendorf, Model 5415D) for 10 min to remove cellular debris. An aliquot of 5-10 μL of the supernatant was added to 5 mL of EcoLite™ (MP, Irvine, Calif.) liquid scintillation cocktail and radioactivity measured by liquid scintillation counting (LSC) using a Beckman Coulter LS6500 multipurpose liquid scintillation counter (Beckman Instruments, Fullerton, Calif.). The remaining sample was then dried using a Labconco refrigerated centrivap concentrator (Labconco, Kansas City, Mo.). Dry extracts were reconstituted in 120 μL of HPLC-grade water and centrifuged at 16,000 RCF using an Eppendorf microcentrifuge for 10 min. Prior to HPLC analysis (described below), radioactivity of the concentrated extracts was measured by LSC using 5 μL aliquots. Extraction recovery was then determined by comparing total radioactivity in extracts before and after drying. The remaining extract was then analyzed by HPLC with online radioactivity detection using a Flow Scintillation Analyzer Radiomatic™ 515TR. Radioactivity in the separated components was quantified by integrating the peaks using Flo-One™ Software (Perkin Elmer Life Sciences). Samples with poor recovery (<85%) were re-analyzed when possible.
# Incubation medium samples were thawed at room temperature, vortexed and centrifuged at 16,000 RCF using an Eppendorf microcentrifuge. An aliquot of 10 μL was added to 5 mL of EcoLite™ (MP, Irvine, Calif.) liquid scintillation cocktail and radioactivity measured by LSC using a Beckman Coulter LS6500 multipurpose liquid scintillation counter (Beckman Instruments, Fullerton, Calif.). Samples (50-100 μL) were then analyzed by HPLC (described below) with online radioactivity detection using a Flow Scintillation Analyzer Radiomatic™ 515TR. Radioactivity in the separated components was quantified by integrating the peaks using Flo-One™ Software (Perkin Elmer Life Sciences). Samples with poor recovery (<85%) were re-analyzed when possible. […]
# [1] = 10 μM [^14C]-Compound 1, 24 h, first series
# [2] = 10 μM [^14C]-Compound 1, 24 h, second series
# [3] = 10 μM [^14C]-Compound 1, 48 h, first series
# [4] = 10 μM [^14C]-Compound 1, 48 h, second series
# [5] = 10 μM [^14C]-Compound 1, 72 h, first series
# [6] = 10 μM [^14C]-Compound 1, 72 h, second series
# [7] = 10 μM [^14C]-2′-C-methyl guanosine, 24 h
# [8] = 10 μM [^14C]-2′-C-methyl guanosine, 48 h
# [9] = 10 μM [^14C]-2′-C-methyl guanosine, 72 h
Major metabolites observed in cellular extracts (% of total radioactivity) [4],"metabolites observed in medium (% of total radioactivity) (10 μM [^14C]-Compound 1, 0 h)","metabolites observed in medium (% of total radioactivity) (10 μM [^14C]-Compound 1, 24 h)","metabolites observed in medium (% of total radioactivity) (10 μM [^14C]-Compound 1, 48 h)","metabolites observed in medium (% of total radioactivity) (10 μM [^14C]-Compound 1, 72 h)",Compound,Major metabolites observed in cellular extracts (% of total radioactivity) [1],Major metabolites observed in cellular extracts (% of total radioactivity) [2],Major metabolites observed in cellular extracts (% of total radioactivity) [3],Major metabolites observed in cellular extracts (% of total radioactivity) [5],Major metabolites observed in cellular extracts (% of total radioactivity) [6],Major metabolites observed in cellular extracts (% of total radioactivity) [7],Major metabolites observed in cellular extracts (% of total radioactivity) [8],Major metabolites observed in cellular extracts (% of total radioactivity) [9],further results
2.65 % of total radioactivity,BLD and BLD^a,2.2% and 1.10% and 1.2%,2.7% and 0.5%,2% and 2.3% and 1.5%,"C[C@@]1(O)[C@H](O)[C@@H](CO)O[C@H]1n1cnc2c(=O)[nH]c(N)nc21 [2′-C-methyl guanosine, 9-(2-C-methyl-β-D-ribofuranosyl)guanine, reference compound]",BLD^a (BLD = below limit of detection (30 DPM)),BLD^a (BLD = below limit of detection (30 DPM)),BLD (BLD = below limit of detection (30 DPM)),BLD (BLD = below limit of detection (30 DPM)),BLD (BLD = below limit of detection (30 DPM)),89.5 % of total radioactivity,89.3 % of total radioactivity,89.6 % of total radioactivity,metabolites in the incubation medium following incubation with [^14C]-2′-C-methyl guanosine (Huh7 cells): No metabolites were observed
,1.7% and 2.9%,8.2% and 8.0%,18.3% and 17.2%,26% and 25.3% and 27.2%,"C[C@@]1(O)[C@H](O)[C@@H](COP(=O)(O)NCc2ccccc2)O[C@H]1n1cnc2c(=O)[nH]c(N)nc21 [Compound 2, [(2R)-2-methyl-β-D-ribofuranosyl]guanine-N-benzylaminyl-5′-monophosphate]",,,,,,,,,
5.82 % of total radioactivity,BLD,2.0% and 3.2%,0.8% and 1.5%,0.7% and 1.0%,"C[C@@]1(O)[C@H](O)[C@@H](COP(=O)(O)O)O[C@H]1n1cnc2c(=O)[nH]c(N)nc21 [Compound 5, [(2R)-2-methyl-β-D-ribofuranosyl]guanine 5′-monophosphate]",BLD (BLD = below limit of detection (30 DPM)),4.81 % of total radioactivity,6.57 % of total radioactivity,6.93 % of total radioactivity,5.74 % of total radioactivity,BLD^a (BLD = below limit of detection (30 DPM)),BLD (BLD = below limit of detection (30 DPM)),BLD (BLD = below limit of detection (30 DPM)),"2′-C-methyl guanosine nucleotide levels in cellular extracts (10 μM [^14C]-2′-C-methyl guanosine, 0 h, n = 1): 0 pmol/million cells; 2′-C-methyl guanosine nucleotide levels in cellular extracts (10 μM [^14C]-2′-C-methyl guanosine, 24 h, n = 1): BLD^a (BLD = below limit of detection (0.02 pmol/million cells)); 2′-C-methyl guanosine nucleotide levels in cellular extracts (10 μM [^14C]-2′-C-methyl guanosine, 48 h, n = 1): BLD (BLD = below limit of detection (0.02 pmol/million cells)); 2′-C-methyl guanosine nucleotide levels in cellular extracts (10 μM [^14C]-2′-C-methyl guanosine, 72 h, n = 1): BLD (BLD = below limit of detection (0.02 pmol/million cells)); 2′-C-methyl guanosine nucleotide levels in cellular extracts (10 μM [^14C]-Compound 1, 0 h, replicate 1 of n = 2): 0 pmol/million cells; 2′-C-methyl guanosine nucleotide levels in cellular extracts (10 μM [^14C]-Compound 1, 0 h, replicate 2 of n = 2): 0 pmol/million cells; 2′-C-methyl guanosine nucleotide levels in cellular extracts (10 μM [^14C]-Compound 1, 24 h, replicate 1 of n = 2): BLD^a (BLD = below limit of detection (0.02 pmol/million cells)); 2′-C-methyl guanosine nucleotide levels in cellular extracts (10 μM [^14C]-Compound 1, 24 h, replicate 2 of n = 2): 1.40 pmol/million cells; 2′-C-methyl guanosine nucleotide levels in cellular extracts (10 μM [^14C]-Compound 1, 48 h, replicate 1 of n = 2): 1.50 pmol/million cells; 2′-C-methyl guanosine nucleotide levels in cellular extracts (10 μM [^14C]-Compound 1, 48 h, replicate 2 of n = 2): 1.50 pmol/million cells; 2′-C-methyl guanosine nucleotide levels in cellular extracts (10 μM [^14C]-Compound 1, 72 h, replicate 1 of n = 2): 1.10 pmol/million cells; 2′-C-methyl guanosine nucleotide levels in cellular extracts (10 μM [^14C]-Compound 1, 72 h, replicate 2 of n = 2): 1.10 pmol/million cells"

Compound,Major metabolites observed in cellular extracts (% of total radioactivity) [4],"metabolites observed in medium (% of total radioactivity) (10 μM [^14C]-Compound 1, 0 h)","metabolites observed in medium (% of total radioactivity) (10 μM [^14C]-Compound 1, 24 h)","metabolites observed in medium (% of total radioactivity) (10 μM [^14C]-Compound 1, 48 h)","metabolites observed in medium (% of total radioactivity) (10 μM [^14C]-Compound 1, 72 h)",Major metabolites observed in cellular extracts (% of total radioactivity) [1],Major metabolites observed in cellular extracts (% of total radioactivity) [2],Major metabolites observed in cellular extracts (% of total radioactivity) [3],Major metabolites observed in cellular extracts (% of total radioactivity) [5],Major metabolites observed in cellular extracts (% of total radioactivity) [6],Major metabolites observed in cellular extracts (% of total radioactivity) [7],Major metabolites observed in cellular extracts (% of total radioactivity) [8],Major metabolites observed in cellular extracts (% of total radioactivity) [9],further results
"CC(C)(CO)C(=O)SCCOP(=O)(NCc1ccccc1)OC[C@H]1O[C@@H](n2cnc3c(=O)[nH]c(N)nc32)[C@](C)(O)[C@@H]1O (mixture of isomers) [Compound 1, 3-hydroxy-2,2-dimethyl-thiopropionic acid S-(2-{[(2R,3R,4R,5R)-5-(2-amino-6-oxo-1,6-dihydro-purin-9-yl)-3,4-dihydroxy-4-methyl-tetrahydro-furan-2-ylmethoxy]-benzylamino-phosphoryloxy}-ethyl) ester]",21.2 % of total radioactivity,,,,,40.3 % of total radioactivity,10.4 % of total radioactivity,15.8 % of total radioactivity,14.1 % of total radioactivity,16.2 % of total radioactivity,,,,"% Residual [^14C]-Compound 1 in incubation medium (0 h): 98% and 96%; % Residual [^14C]-Compound 1 in incubation medium (24 h): 86% and 85%; % Residual [^14C]-Compound 1 in incubation medium (48 h): 76% and 77%; % Residual [^14C]-Compound 1 in incubation medium (72 h): 67% and 65% and 68%; unchanged Compound 1, % of the total radioactivity (Huh7 cells, after 72 hours incubation with [^14C]-Compound 1): 15%"
